According to PubChem BioAssay AID1963435 (Molecular Pharmacology Branch, DTP, NCI, 2024):
Several values for one entry are separate records, joined by “and”; a condition that tells them apart may be missing. Equal values may be shown once.

Tested on: PANC-1 complex spheroid growth, percent test/control
Assay: Anticancer human tumor PANC-1 cell line growth inhibition [Asc];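 also: spheroids exposed to agents for 7 days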;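 as to viability, T/C: percent viability relative to DMSO vehicle wells taken as 100%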
Settings: for viability, T/C: stronger effect = lower value
Outline: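 Concentration series start at each agent's clinical Cmax, or at 10 microM when none is established, and drop in half-log steps; agents are applied alone or together to complex spheroids built with HUVEC and hMSC.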

## Cn1ncnc1[C@H]1c2n[nH]c(=O)c3cc(F)cc(c23)N[C@@H]1c1ccc(F)cc1 + CCN1C(C(=O)NC23CCC(C(=O)O)(CC2)CC3)C(c2cccc(Cl)c2F)C2(C(=O)Nc3cc(Cl)ccc32)C12CCCCC2
Curve of first compound, second compound 0.00949 µM
  IC50: > 100 nM
Curve of first compound, second compound 0.03 µM
  IC50: > 100 nM
Curve of first compound, second compound 0.0949 µM
  IC50: > 100 nM
Curve of first compound, second compound 0.3 µM
  IC50: > 100 nM
Curve of first compound, second compound 0.949 µM
  IC50: > 100 nM
Curve of first compound, second compound 3 µM
  IC50: > 100 nM
Second compound 0.00949 µM, first compound 0.000316 µM
  viability, T/C: 101%
Second compound 0.00949 µM, first compound 0.001 µM
  viability, T/C: 89.6%
Second compound 0.00949 µM, first compound 0.00316 µM
  viability, T/C: 97.4%
Second compound 0.00949 µM, first compound 0.01 µM
  viability, T/C: 96.7%
Second compound 0.00949 µM, first compound 0.0316 µM
  viability, T/C: 111%
Second compound 0.00949 µM, first compound 0.1 µM
  viability, T/C: 113%
Second compound 0.03 µM, first compound 0.000316 µM
  viability, T/C: 107%
Second compound 0.03 µM, first compound 0.001 µM
  viability, T/C: 89.5%
Second compound 0.03 µM, first compound 0.00316 µM
  viability, T/C: 98.4%
Second compound 0.03 µM, first compound 0.01 µM
  viability, T/C: 98.9%
Second compound 0.03 µM, first compound 0.0316 µM
  viability, T/C: 109%
Second compound 0.03 µM, first compound 0.1 µM
  viability, T/C: 101%
Second compound 0.0949 µM, first compound 0.000316 µM
  viability, T/C: 93.4%
Second compound 0.0949 µM, first compound 0.001 µM
  viability, T/C: 98.1%
Second compound 0.0949 µM, first compound 0.00316 µM
  viability, T/C: 103%
Second compound 0.0949 µM, first compound 0.01 µM
  viability, T/C: 94.2%
Second compound 0.0949 µM, first compound 0.0316 µM
  viability, T/C: 108%
Second compound 0.0949 µM, first compound 0.1 µM
  viability, T/C: 102%
Second compound 0.3 µM, first compound 0.000316 µM
  viability, T/C: 98.8%
Second compound 0.3 µM, first compound 0.001 µM
  viability, T/C: 96.2%
Second compound 0.3 µM, first compound 0.00316 µM
  viability, T/C: 109%
Second compound 0.3 µM, first compound 0.01 µM
  viability, T/C: 101%
Second compound 0.3 µM, first compound 0.0316 µM
  viability, T/C: 110%
Second compound 0.3 µM, first compound 0.1 µM
  viability, T/C: 106%
Second compound 0.949 µM, first compound 0.000316 µM
  viability, T/C: 111%
Second compound 0.949 µM, first compound 0.001 µM
  viability, T/C: 117%
Second compound 0.949 µM, first compound 0.00316 µM
  viability, T/C: 106%
Second compound 0.949 µM, first compound 0.01 µM
  viability, T/C: 107%
Second compound 0.949 µM, first compound 0.0316 µM
  viability, T/C: 105%
Second compound 0.949 µM, first compound 0.1 µM
  viability, T/C: 114%
Second compound 3 µM, first compound 0.000316 µM
  viability, T/C: 109%
Second compound 3 µM, first compound 0.001 µM
  viability, T/C: 123%
Second compound 3 µM, first compound 0.00316 µM
  viability, T/C: 124%
Second compound 3 µM, first compound 0.01 µM
  viability, T/C: 116%
Second compound 3 µM, first compound 0.0316 µM
  viability, T/C: 125%
Second compound 3 µM, first compound 0.1 µM
  viability, T/C: 106%

## CNC(C)C(=O)NC1CN(S(=O)(=O)c2cccc(S(=O)(=O)N3CCC4CCC(C(=O)NC(c5ccccc5)c5ccccc5)N4C(=O)C(NC(=O)C(C)NC)C3)c2)CCC2CCC(C(=O)NC(c3ccccc3)c3ccccc3)N2C1=O (stereo unspecified) + Cc1c(S(C)(=O)=O)c(-c2cc(F)cc(N3CCN(c4ccc(NS(=O)(=O)c5ccc(NC(CCN6CCC(C(=O)OCCCP(=O)(O)O)CC6)CSc6ccccc6)c(S(=O)(=O)C(F)(F)F)c5)cc4)CC3)c2)c(-c2ccc(Cl)cc2)n1C(C)C
Curve of first compound, second compound 0.0316 µM
  IC50: > 1000 nM
Curve of first compound, second compound 0.1 µM
  IC50: > 1000 nM
Curve of first compound, second compound 0.316 µM
  IC50: > 1000 nM
Curve of first compound, second compound 1 µM
  IC50: > 1000 nM
Curve of first compound, second compound 3.16 µM
  IC50: > 1000 nM
Curve of first compound, second compound 10 µM
  IC50: > 1000 nM
Second compound 0.0316 µM, first compound 0.00316 µM
  viability, T/C: 100%
Second compound 0.0316 µM, first compound 0.01 µM
  viability, T/C: 92.3%
Second compound 0.0316 µM, first compound 0.0316 µM
  viability, T/C: 97.5%
Second compound 0.0316 µM, first compound 0.1 µM
  viability, T/C: 94.9%
Second compound 0.0316 µM, first compound 0.316 µM
  viability, T/C: 98.6%
Second compound 0.0316 µM, first compound 1 µM
  viability, T/C: 91.8%
Second compound 0.1 µM, first compound 0.00316 µM
  viability, T/C: 96.6%
Second compound 0.1 µM, first compound 0.01 µM
  viability, T/C: 98.4%
Second compound 0.1 µM, first compound 0.0316 µM
  viability, T/C: 105%
Second compound 0.1 µM, first compound 0.1 µM
  viability, T/C: 93.8%
Second compound 0.1 µM, first compound 0.316 µM
  viability, T/C: 98.6%
Second compound 0.1 µM, first compound 1 µM
  viability, T/C: 96.9%
Second compound 0.316 µM, first compound 0.00316 µM
  viability, T/C: 98.3%
Second compound 0.316 µM, first compound 0.01 µM
  viability, T/C: 113%
Second compound 0.316 µM, first compound 0.0316 µM
  viability, T/C: 97.4%
Second compound 0.316 µM, first compound 0.1 µM
  viability, T/C: 101%
Second compound 0.316 µM, first compound 0.316 µM
  viability, T/C: 103%
Second compound 0.316 µM, first compound 1 µM
  viability, T/C: 91.9%
Second compound 1 µM, first compound 0.00316 µM
  viability, T/C: 101%
Second compound 1 µM, first compound 0.01 µM
  viability, T/C: 113%
Second compound 1 µM, first compound 0.0316 µM
  viability, T/C: 105%
Second compound 1 µM, first compound 0.1 µM
  viability, T/C: 102%
Second compound 1 µM, first compound 0.316 µM
  viability, T/C: 109%
Second compound 1 µM, first compound 1 µM
  viability, T/C: 88.9%
Second compound 3.16 µM, first compound 0.00316 µM
  viability, T/C: 104%
Second compound 3.16 µM, first compound 0.01 µM
  viability, T/C: 104%
Second compound 3.16 µM, first compound 0.0316 µM
  viability, T/C: 103%
Second compound 3.16 µM, first compound 0.1 µM
  viability, T/C: 94.9%
Second compound 3.16 µM, first compound 0.316 µM
  viability, T/C: 98.5%
Second compound 3.16 µM, first compound 1 µM
  viability, T/C: 90.7%
Second compound 10 µM, first compound 0.00316 µM
  viability, T/C: 173%
Second compound 10 µM, first compound 0.01 µM
  viability, T/C: 183%
Second compound 10 µM, first compound 0.0316 µM
  viability, T/C: 173%
Second compound 10 µM, first compound 0.1 µM
  viability, T/C: 160%
Second compound 10 µM, first compound 0.316 µM
  viability, T/C: 185%
Second compound 10 µM, first compound 1 µM
  viability, T/C: 158%

## Cn1ncnc1[C@H]1c2n[nH]c(=O)c3cc(F)cc(c23)N[C@@H]1c1ccc(F)cc1
Compound 0.000316 µM
  viability, T/C: 97.2% and 109% and 94.1%
Compound 0.001 µM
  viability, T/C: 104% and 101% and 106%
Compound 0.00316 µM
  viability, T/C: 99.2% and 110% and 107%
Compound 0.01 µM
  viability, T/C: 98.5% and 105% and 109%
Compound 0.0316 µM
  viability, T/C: 109% and 105% and 108%
Compound 0.1 µM
  viability, T/C: 109% and 105% and 115%
Curve of compound
  IC50: > 100 nM
